pIC50: −log10 of the molar value. Like-named read-outs stand apart in the source and are kept apart here.
Legend:
[1] = target: farnesyl protein transferase; experiment: FPT IC50 (inhibition of farnesyl protein transferase, in vitro enzyme assay); assay type: biochemical
Source text: In Table 2 "Ex. No." stands for "Example Number". In Table 2, FPT IC50 results are less indicated otherwise.

[2] = target: farnesyl protein transferase (K-ras) (Homo sapiens, UniProt P49354+P49356); experiment: FPT IC50 (K-ras), in vitro enzyme assay; assay type: biochemical
Method: (§1) FPT IC50 (inhibition of farnesyl protein transferase, in vitro enzyme assay), GGPT IC50 (inhibition of geranylgeranyl protein transferase, in vitro enzyme assay) and COS Cell IC50 (Cell-Based Assay) were determined following the assay procedures described in WO 95/10516, published Apr. 20, 1995. Cell Mat Assay, and anti-tumor activity (in vivo anti-tumor studies) could be determined by the assay procedures described in WO 95/10516. The disclosure of WO 95/10516 is incorporated herein by reference thereto.

COS Cell = COS Cell IC50 (Cell-Based Assay)
Method: as §1

Human tumor cells = experiment: Soft Agar Assay (anchorage-independent growth); assay type: cell-based; details: Table 4, colonies after 10-16 days at 37° C.
Method: Soft Agar Assay: Anchorage-independent growth is a characteristic of tumorigenic cell lines. Human tumor cells are suspended in growth medium containing 0.3% agarose and an indicated concentration of a farnesyl transferase inhibitor. The solution is overlayed onto growth medium solidified with 0.6% agarose containing the same concentration of farnesyl transferase inhibitor as the top layer. After the top layer is solidified, plates are incubated for 10-16 days at 37° C. under 5% CO2 to allow colony outgrowth. […] Colonies can be counted and the IC50 's can be determined.

Structure (SMILES) | pIC50 ([1]; Table 3) | pIC50 (Human tumor cells; Homo sapiens) | pIC50 (COS Cell; Table 4) | further results
Cc1noc(C)c1C(=O)N1CCC(CC(=O)N2CCC([C@H]3c4ncc(Br)cc4CCc4cc(Cl)cc(Br)c43)CC2)CC1 [Compound 27.0-B] | 8.40 | 6.43 | 8.00 | –
CC(C)(C)OC(=O)Cn1cccc1C(=O)N1CCC(CC(=O)N2CCC([C@H]3c4ncc(Br)cc4CCc4cc(Cl)cc(Br)c43)CC2)CC1 [Compound 61.0-B] | 7.96 | – | – | –
CC(=O)O[C@H]1CC[C@@H](C(=O)N2CCC(CC(=O)N3CCC([C@H]4c5ncc(Br)cc5CCc5cc(Cl)cc(Br)c54)CC3)CC2)CC1 [Compound 66.0-B] | 8.14 | 6.36 | 8.00 | –
O=C(CC1CCN(C(=O)[C@H]2CC[C@@H](O)CC2)CC1)N1CCC([C@H]2c3ncc(Br)cc3CCc3cc(Cl)cc(Br)c32)CC1 [Compound 73.0-B] | 8.35 | 6.44 | 7.62 | –
O=C(CC1CCN(C(=O)c2ccoc2)CC1)N1CCC([C@H]2c3ncc(Br)cc3CCc3cc(Cl)cc(Br)c32)CC1 [Compound 84.0-B] | 8.07 | 7.00 | 7.96 | –
O=C(NC(=O)C(Cl)(Cl)Cl)O[C@H]1CC[C@@H](C(=O)N2CCC(CC(=O)N3CCC([C@H]4c5ncc(Br)cc5CCc5cc(Cl)cc(Br)c54)CC3)CC2)CC1 [Compound 93.0-B] | 8.24 | 6.39 | 7.52 | –
NC(=O)O[C@H]1CC[C@@H](C(=O)N2CCC(CC(=O)N3CCC([C@H]4c5ncc(Br)cc5CCc5cc(Cl)cc(Br)c54)CC3)CC2)CC1 [Compound 94.0-B] | 8.40 | 6.68 | 7.60 | –
N#CN=C(Oc1ccccc1)N1CCC(CC(=O)N2CCN(C3c4ccc(Cl)cc4CCc4cc(Br)cnc43)CC2)CC1 (centres unmarked) [Example 1, PHENYL 4-[2-[4-(3-BROMO-8-CHLORO-6,11-DIHYDRO-5H-BENZO[5,6]CYCLOHEPTA[1,2-b]PYRIDIN-11-YL]-1-PIPERAZINYL]-2-OXOETHYL]-N-CYANO-1-PIPERIDINE-CARBOXIMIDATE] | – | – | – | FPT inhibition (column FPT IC50) ([1]; @ 0.3 μM, Table 2): 44%
N#CNC(=N)N1CCC(CC(=O)N2CCN(C3c4ccc(Cl)cc4CCc4cc(Br)cnc43)CC2)CC1 (centres unmarked) [Example 2, 4-[2-[4-(3-BROMO-8-CHLORO-6,11-DIHYDRO-5 H-BENZO[5,6]CYCLOHEPTA[1,2-b]PYRIDIN-11-YL)-1-PIPERAZINYL]-2-OXOETHYL]-N-CYANO-1-PIPERIDINE-CARBOXIMIDAMIDE] | – | – | – | pIC50 ([1]; Table 2): 7.00
N#CN1CCC(CC(=O)N2CCN(C3c4ccc(Cl)cc4CCc4cc(Br)cnc43)CC2)CC1 (centres unmarked) [Example 4] | – | – | – | pIC50 ([1]; Table 2): 7.27
N=C(NS(N)(=O)=O)N1CCC(CC(=O)N2CCN(C3c4ccc(Cl)cc4CCc4cc(Br)cnc43)CC2)CC1 (centres unmarked) [Example 6, 4-[2-[4-(3-BROMO-8-CHLORO-6,11-DIHYDRO-5H-BENZO[5,6]CYCLOHEPTA[1,2-b]PYRIDIN-11-YL)-1-PIPERAZINYL]2-OXOETHYL]-N-SULFAMOYL-1-PIPERIDINE-CARBOXIMIDAMIDE] | – | – | – | pIC50 ([1]; Table 2): 6.92
NC(=NO)N1CCC(CC(=O)N2CCN(C3c4ccc(Cl)cc4CCc4cc(Br)cnc43)CC2)CC1 (centres unmarked) [Example 11, 4-[2-[4-(3-BROMO-8-CHLORO-6,11-DIHYDRO-5 H-BENZO[5,6CYCLOHEPTA[1,2-b]PYRIDIN-11-YL-1-PIPERAZINYL]-2-OXOETHYL]-N-HYDROXY-1-PIPERIDINE-CARBOXIMIDATE] | – | – | – | pIC50 ([1]; Table 2): 7.24
NC(=O)NC(=O)N=C(Oc1ccccc1)N1CCC(CC(=O)N2CCN(C3c4ccc(Cl)cc4CCc4cc(Br)cnc43)CC2)CC1 (centres unmarked) [Example 13, PHENYL N- [[(AMINOCARBONYL)AMINO]CARBONYL]4-[2-[4-(3-BROMO-8-CHLORO-6,11-DIHYDRO-5 H-BENZO[5,6CYCLOHEPTA-[1,2-b]PYRIDIN-11-YL)-1-PIPERAZINYL]-2-OXOETHYL]-1-PIPERIDINECARBOXIMIDATE] | – | – | – | pIC50 ([1]; Table 2): 6.85
N=C(NC(=O)NC(N)=O)N1CCC(CC(=O)N2CCN(C3c4ccc(Cl)cc4CCc4cc(Br)cnc43)CC2)CC1 (centres unmarked) [Example 14, N-[[(AMINOCARBONYL)AMINO]CARBONYL]-4-[2-[4-(3-BROMO-8-CHLORO-6,11-DIHYDRO-5H-BENZO[5,6]CYCLOHEPTA[1,2-b]-PYRIDIN-11-YL)-1-PIPERAZINYL]2-OXOETHYL]-1-PIPERIDINECARBOXIMIDAMIDE] | – | – | – | pIC50 ([1]; Table 2): 7.11
N#CN1CCC(CC(=O)N2CCC([C@H]3c4ncc(Br)cc4CCc4cc(Cl)cc(Br)c43)CC2)CC1 [Example 26] | – | – | – | pIC50 ([1]; Table 2): 8.64; pIC50 (COS Cell; Table 2): 7.92
N=C(Oc1ccccc1)N1CCC(CC(=O)N2CCC(C3c4ccc(Cl)c(Br)c4CCc4cc(Br)cnc43)CC2)CC1 (centres unmarked) [Example 27] | – | – | – | pIC50 ([1]; Table 2): 7.41
N=C(N)N1CCC(CC(=O)N2CCC(C3c4ccc(Cl)c(Br)c4CCc4cc(Br)cnc43)CC2)CC1 (centres unmarked) [Example 28] | – | – | – | pIC50 ([1]; Table 2): 7.64; inhibition at 1 µM (COS Cell; @ 1 μM, Table 2): 0%
N#CN1CCC(CC(=O)N2CCC(C3c4ccc(Cl)c(Br)c4CCc4cc(Br)cnc43)CC2)CC1 (centres unmarked) [Example 30] | – | – | – | pIC50 ([1]; Table 2): 8.15; pIC50 ([2]; Table 2): 7.41; pIC50 (COS Cell; Table 2): 6.34
CCn1cccc1C(=O)N1CCC(CC(=O)N2CCC([C@H]3c4ncc(Br)cc4CCc4cc(Cl)cc(Br)c43)CC2)CC1 [Example 54] | 8.11 | < 6.30 | 7.40 | –

More lines, in order of rising pIC50 ([1]; Table 3), values ahead:

pIC50 ([1]; Table 3) | pIC50 (Human tumor cells; Homo sapiens) | Structure (SMILES) | pIC50 (COS Cell; Table 4) | further results
8.42 | 6.70 | CS(=O)(=O)n1cccc1C(=O)N1CCC(CC(=O)N2CCC([C@H]3c4ncc(Br)cc4CCc4cc(Cl)cc(Br)c43)CC2)CC1 [Compound 43.0-B] | > 8.00 | –
8.43 | – | O=CN1CCC(CC(=O)N2CCC([C@H]3c4ncc(Br)cc4CCc4cc(Cl)cc(Br)c43)CC2)CC1 [Compound 5.0-B] | 8.10 | pIC50 [2]: 7.80
8.49 | 6.51 | NC(=O)Cn1cccc1C(=O)N1CCC(CC(=O)N2CCC([C@H]3c4ncc(Br)cc4CCc4cc(Cl)cc(Br)c43)CC2)CC1 [Compound 42.0-B] | 7.57 | –
8.49 | 6.30 | O=C(CC1CCN(C(=O)c2ncccc2O)CC1)N1CCC([C@H]2c3ncc(Br)cc3CCc3cc(Cl)cc(Br)c32)CC1 [Compound 83.0-B] | 7.92 | –
8.52 | 6.82 | O=C(CC1CCN(C(=O)c2cn[nH]c2)CC1)N1CCC([C@H]2c3ncc(Br)cc3CCc3cc(Cl)cc(Br)c32)CC1 [Compound 31.0-B] | 8.15 | –
8.54 | 6.35 | O=C(CC1CCN(C(=O)c2ccc(O)nc2)CC1)N1CCC([C@H]2c3ncc(Br)cc3CCc3cc(Cl)cc(Br)c32)CC1 [Compound 47.0-B] | 7.46 | –
8.55 | < 6.30 | O=C(O)Cn1cccc1C(=O)N1CCC(CC(=O)N2CCC([C@H]3c4ncc(Br)cc4CCc4cc(Cl)cc(Br)c43)CC2)CC1 [Compound 62.0-B] | 6.15 | –
8.59 | 6.74 | CC(=O)N1CCC(CC(=O)N2CCC([C@H]3c4ncc(Br)cc4CCc4cc(Cl)cc(Br)c43)CC2)CC1 [Compound 36.0-B] | 7.30 | pIC50 (Human tumor cells): 6.77
8.59 | 6.77 | O=C1C[C@@H](C(=O)N2CCC(CC(=O)N3CCC([C@H]4c5ncc(Br)cc5CCc5cc(Cl)cc(Br)c54)CC3)CC2)NC(=O)N1 [Compound 78.0-B] | 7.52 | –
8.59 | < 6.30 | O=C(CC1CCN(C(=O)[C@@H]2CSCN2)CC1)N1CCC([C@H]2c3ncc(Br)cc3CCc3cc(Cl)cc(Br)c32)CC1 [Compound 80.0-B] | – | –
8.60 | < 6.30 | O=C(CC1CCN(C(=O)c2ccc(O)nc2)CC1)N1CCC([C@@H]2c3c(Br)cc(Cl)cc3CCc3cc(Br)c[n+]([O-])c32)CC1 [Compound 91.0-B] | 6.30 | –
8.64 | 6.92 | O=C1N[C@H](C(=O)N2CCC(CC(=O)N3CCC([C@H]4c5ncc(Br)cc5CCc5cc(Cl)cc(Br)c54)CC3)CC2)CO1 [Compound 28.0-B] | 8.15 | –
8.66 | 6.30 | NC(=O)c1cncc(C(=O)N2CCC(CC(=O)N3CCC([C@H]4c5ncc(Br)cc5CCc5cc(Cl)cc(Br)c54)CC3)CC2)c1 [Compound 29.0-B] | 7.68 | –
8.68 | < 6.30 | O=C(CC1CCN(C(=O)c2cccnc2O)CC1)N1CCC([C@H]2c3ncc(Br)cc3CCc3cc(Cl)cc(Br)c32)CC1 [Compound 48.0-B] | 7.33 | –
8.70 | 6.55 | O=C1NC[C@@H](C(=O)N2CCC(CC(=O)N3CCC([C@H]4c5ncc(Br)cc5CCc5cc(Cl)cc(Br)c54)CC3)CC2)N1 [Compound 15.0-B] | 7.48 | pIC50 (Human tumor cells): 6.43
8.72 | 6.78 | O=C(CC1CCN(C(=O)c2ccc[n+]([O-])c2)CC1)N1CCC([C@H]2c3ncc(Br)cc3CCc3cc(Cl)cc(Br)c32)CC1 [Compound 46.0-B] | 8.15 | –
8.77 | < 6.30 | O=C(CC1CCN(C(=O)c2cccn2Cc2ccccc2)CC1)N1CCC([C@H]2c3ncc(Br)cc3CCc3cc(Cl)cc(Br)c32)CC1 [Compound 41.0-B] | 7.52 | –
9.10 | < 6.30 | O=C(O)c1cncc(C(=O)N2CCC(CC(=O)N3CCC([C@H]4c5ncc(Br)cc5CCc5cc(Cl)cc(Br)c54)CC3)CC2)c1 [Compound 25.0-B] | < 6.00 | –
